Results taken from patent publication US11839614B2, “Methods for treating or mitigating cardiotoxicity characterized by inhibition of adenosine A2 signaling and/or adenosine A2 receptor expression” (INTRA-CELLULAR THERAPIES, INC., priority 2018, dated 2023).

What was measured:
myocyte cAMP = assay: Whole cell cAMP in isolated rabbit myocytes; format: cell-based; settings: agent added to Fsk
Excerpt: This is consistent with prior studies showing locally generated cAMP from β-AR and its modulation by PDE3 occur in local subcellular domains that are not easily detected in whole cell lysates32.

[1] = test system: normal and failing canine hearts; assay: Conscious dog pressure-volume hemodynamic analysis, normal and failing hearts; format: in vivo
Excerpt: Dogs are studied in the conscious state before and after inducing dilated cardiomyopathy by tachypacing for two weeks at 200 bpm. […]
Load insensitive indexes of contractility (dP/dtmax/IP and PRSW) increased.

Plasma level in mice = format: in vivo; settings: iv, mouse, 15 minutes after i.v. dosing
Description: Rabbit dosing at 0.1 mg/kg i.v. yields plasma values of 213±88 ng/mL at 15 min. Mouse plasma levels 15 minutes after i.v. dosing was 334+/−74 ng/mL. Therapeutic levels are 100-300 ng/mL, and so analysis is presented after 120 min for P.O. and after 20 min for i.v. (somewhat sooner in rabbit and mouse due to faster kinetics).
(§1) To test this, mice were administered the same or higher intravenous bolus doses (0.1, 0.5 mg/kg) as used in dogs and rabbits, and studied using a similar preparation to the rabbit.

murine heart = assay: Acute cardiovascular effects in intact mice; format: in vivo, mouse; settings: intravenous bolus 0.1, 0.5 mg/kg
Description: as §1

PDE4D = PDE4D (Homo sapiens, UniProt Q08499)
Chain of PDE4D (Q08499 whole entry, species assumed): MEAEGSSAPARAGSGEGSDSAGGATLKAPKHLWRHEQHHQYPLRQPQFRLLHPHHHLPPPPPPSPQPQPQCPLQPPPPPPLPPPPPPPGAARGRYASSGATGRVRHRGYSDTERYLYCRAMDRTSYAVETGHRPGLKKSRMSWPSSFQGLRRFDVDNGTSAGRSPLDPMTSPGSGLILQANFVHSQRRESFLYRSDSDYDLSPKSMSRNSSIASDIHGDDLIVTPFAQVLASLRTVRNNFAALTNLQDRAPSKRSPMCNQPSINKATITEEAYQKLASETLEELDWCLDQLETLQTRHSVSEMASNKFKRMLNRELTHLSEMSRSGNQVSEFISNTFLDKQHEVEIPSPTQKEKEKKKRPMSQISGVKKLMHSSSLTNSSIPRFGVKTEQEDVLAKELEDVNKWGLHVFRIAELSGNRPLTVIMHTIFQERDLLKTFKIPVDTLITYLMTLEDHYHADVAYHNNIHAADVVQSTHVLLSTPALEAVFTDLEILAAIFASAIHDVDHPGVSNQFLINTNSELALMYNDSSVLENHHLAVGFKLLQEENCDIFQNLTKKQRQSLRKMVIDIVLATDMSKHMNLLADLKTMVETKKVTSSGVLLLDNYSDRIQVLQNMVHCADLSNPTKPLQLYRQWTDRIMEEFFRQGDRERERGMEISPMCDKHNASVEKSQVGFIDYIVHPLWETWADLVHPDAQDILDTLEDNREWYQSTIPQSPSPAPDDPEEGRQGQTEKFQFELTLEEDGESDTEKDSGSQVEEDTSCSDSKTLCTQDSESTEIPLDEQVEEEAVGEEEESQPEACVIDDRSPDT
Excerpt: Additional pharmaceuticals used in the following examples are dobutamine (Hospira Inc., Lake Forest, Ill.), esmolol HCl (Mylan, Rockford, Ill.), MRS1754 (Tocris Bioscience, Bristol, UK), and Hespan (6% Hetastarch in 0.9% NaCl B. Braun Medical Inc., Bethlehem, Pa.).

[2] = Plasma Compound 1 levels in dogs (LC/MS-MS); format: in vivo; settings: dog; for concentration at 10 min / concentration at 30 min / concentration at 120 min: mongrel, plasma; for concentration at 10 min / concentration at 30 min: iv; for concentration at 120 min: po, 10 mg, 10 mg P.O., 120 min post dose
Description: Dogs are studied in the conscious state before and after inducing dilated cardiomyopathy by tachypacing for two weeks at 200 bpm.
The study employs two doses, 0.01 and 0.1 mg/kg, the latter administered 30 minutes after the first.
(§2) Intravenous blood is placed in K2EDTA tubes, centrifuged at 2,000 g for 15 min, plasma decanted, and stored frozen. Compound 1 levels are assessed by a rapid, sensitive liquid chromatography-tandem mass spectrometric (LC/MS-MS) method.
The mobile phase consists of a gradient of 60-100% methanol over 4.5 minutes in 5 mM ammonium bicarbonate with 0.2% NH3H2O, pumped at a flow rate of 0.8 mL/min. Analysis time is 4.5 min and both the analyte and internal standard eluted around 2.0 min. Multiple reactions monitoring (MRM) mode is used to detect Compound 1. MS is operated in the positive ion detection mode. […] Calibration curves are linear from 0.02-500 ng/mL in dog plasma sample matrices. The lower limit of quantification (LLOQ) for plasma was 0.02 ng/mL.

plasma cAMP and cGMP = assay: Plasma cAMP and cGMP by ELISA in dogs; format: in vivo, dog
Description: Blood plasma is obtained from these animals, and cAMP and cGMP are assayed by ELISA.

[3] = Plasma level in rabbits (LC/MS-MS); format: in vivo; settings: male, New Zealand White, iv, rabbit, 0.1 mg/kg i.v.
Description: (§3) New Zealand White rabbits (male, 2-3 kg) are sedated with 35 mg/kg ketamine and 5 mg/kg xylazine, intubated and ventilated (Model 683, Harvard Apparatus, Holliston, Mass.), with anesthesia maintained with isoflurane inhalation (1-2%). A pressure-volume catheter (SPR-894, Millar, Inc., Houston, Tex.) is inserted via the common carotid artery and advanced to the LV apex, and a 2-Fr pacing catheter is positioned in the right atrium via the right jugular vein to provide atrial pacing. […] The parallel conductance is determined by the hypertonic saline injection method. Rabbits are infused with 6% hetastarch in saline during the procedure to stabilize arterial pressure.
as §2
The mobile phase consists of a gradient of 60-100% methanol over 4.5 minutes in 5 mM ammonium bicarbonate with 0.2% NH3H2O, pumped at a flow rate of 0.8 mL/min. Analysis time is 4.5 min and both the analyte and internal standard eluted around 2.0 min. Multiple reactions monitoring (MRM) mode is used to detect Compound 1. MS is operated in the positive ion detection mode. […] The lower limit of quantification (LLOQ) for plasma was 0.02 ng/mL.

adult rabbit myocytes = assay: Contraction and calcium transients in isolated rabbit cardiomyocytes; format: cell-based
Description: To test whether PDE1 inhibition directly impacts cardiomyocyte contraction and calcium transients, studies are carried out on normal adult rabbit myocytes. […] As PDE1 requires sufficient cAMP and Ca^2+ to be impactful, a dose response was performed to the adenylate cyclase activator, forskolin (FSK) to determine the lowest dose producing a modest but significant inotropic effect (1 μM).
Rabbit myocytes were isolated to determine the effect of PDE1 inhibition on cardiomyocyte contraction and whole cell Ca2+ transients, and to compare the results to those with a PDE3 inhibitor, cilostamide (Cil, 1 μM).
An alternative approach to augmenting cAMP independent of […] is to directly stimulate adenylate cyclase using forskolin (Fsk). A dose response study was carried out to identify a non-saturating Fsk dose that still generated significant inotropic effects (1 μM).

[4] = test system: rabbit heart and vasculature; assay: Anesthetized rabbit pressure-volume hemodynamics with or without esmolol or MRS-1754; format: in vivo
Excerpt: Cyclic AMP is generated largely by transmembrane adenylyl cyclases activated via stimulatory G protein (Gs), with β-adrenergic, adenosine (primarily A2B), glucagon, prostanoids, histamine, and serotonin all coupling to Gs in cardiomyocytes. The present studies focus on beta-adrenergic and adenosine receptors, and for the latter, concentrated on the A2B receptor, which has been reported to directly stimulate cAMP-dependent contractility. […] Relaxation changes are also modest with LV preload (end-diastolic and volume) unaltered; however, the combined vasodilator-inotropic response doubled ventricular/arterial coupling ratio, Ees/Ea.
as §3

[5] = control and HF dogs, 10 mg/kg oral, two hours
[6] = 0.1 mg/kg, plasma Compound 1 concentration, normal dogs, 0.1 mg/kg i.v.
[7] = 0.1 mg/kg, plasma Compound 1 level, failing dogs, IV administration
[8] = Compound 1 added after forskolin 1 μM
[9] = agent added to non-saturating Iso
[10] = agent alone: Cil 1 μM, Compound 1 1 μM, Iso non-saturating dose
[11] = agent alone: Iso 50 nM, Compound 1 up to 1 mM, IBMX 100 μM

With `CN1C(=O)c2c(nn(Cc3ccc(-c4cccc(F)n4)cc3)c2Nc2ccccc2)N2C1=N[C@@H]1CCC[C@@H]12` [Compound 1, (6aR,9aS)-2-(4-(6-fluoropyridin-2-yl)benzyl)-5-methyl-3-(phenyl-amino)-5,6a,7,8,9,9a-hexahydrocyclopenta-[4,5]imidazo[1,2-a]pyrazolo[4,3-e]pyrimidin-4-(2H)-one monophosphate] the “whole cell cAMP” value (myocyte cAMP) was “substantially increased”, the “hemodynamic responses in all but heart rate” value ([1]; 0.01 mg/kg i.v.) was “negligible” and the hemodynamic responses ([1]; 0.1 mg/kg i.v.) was “positive chronotropic, inotropic, lusitropic, and vasodilator responses were observed”. For the same molecule, the “PV loop area (stroke work) and contractility” value ([1]; 10 mg/kg Compound 1 added to 10 μg/kg/min dobutamine, control and failing hearts) was “further enhanced both”, the “increase in heart rate” value ([1]; HF animals, 10 mg/kg oral) was “blunted” and the “augmentation of cardiac output” value ([1]; HF dogs, 10 mg/kg oral, two hours) was 32%. The “LV preload (end-diastolic volume) or systolic pressure” value [1, 5] was “little change”, the “contractility (end-systolic elastance)” value [1, 5] was “increase in contractility” and the “augmentation of cardiac output” value ([1]; control dogs, 10 mg/kg oral, two hours) was 50%. The “inotropy, lusitropy and vasodilation” value ([1]; heart failure dogs, 0.1 mg/kg i.v.) was “remained significantly improved”, the “time to peak hemodynamic response” value ([1]; intravenous, normal and HF dogs) was 5 to 10 min and the heart rate ([1]; normal dogs, 10 mg/kg oral) was “increased heart rate”. For the same molecule, the “relaxation (dP/dtmin and relaxation time constant tau)” value ([1]; normal dogs, 10 mg/kg oral) was “improved”, the systemic vascular resistance ([1]; normal dogs, 10 mg/kg oral) was “reduced systemic vascular resistance” and the systolic blood pressure ([1]; normal dogs, 10 mg/kg oral) was “without altering systolic blood pressure”. For the same molecule, the concentration at 15 min (Plasma level in mice) was 334 ng/mL, the “hemodynamic or cardiac changes” value (murine heart) was “failed to show any significant hemodynamic or cardiac changes” and the “greater activity toward PDE1 isoforms compared with PDE4D” value (PDE4D) was greater than 1000 fold. For the same molecule, the “therapeutic levels (plasma)” value ([2]; in vivo) was 100 to 300 ng/mL, the concentration at 10 min ([2]; 0.01 mg/kg, plasma Compound 1 concentration, dogs, 0.01 mg/kg i.v.) was 23.6 ± 8.6 ng/mL and the concentration at 10 min [2, 6] was 211 ± 60.7 ng/mL. It also gave a concentration at 30 min [2, 6] of 94.5 ± 21.2 ng/mL, a concentration at 10 min [2, 7] of 441 ± 92.5 ng/mL and a concentration at 30 min [2, 7] of 185 ± 28.9 ng/mL. The concentration at 120 min ([2]; plasma Compound 1 concentration, HF dogs) was 178 ± 100 ng/mL, the concentration at 120 min ([2]; plasma Compound 1 concentration, normal dogs) was 104 ± 8.5 ng/mL and the “plasma cAMP” value (plasma cAMP and cGMP; HF dogs, single drugs) was “not significantly changed”. The “plasma cGMP” value (plasma cAMP and cGMP; all conditions, normal and HF models) was “remains unchanged”, the concentration at 15 min [3] was 213 ± 88 ng/mL and the peak calcium transient (adult rabbit myocytes; [8]) was “remains unaltered”. For the same molecule, the relaxation/calcium decay rates (adult rabbit myocytes; [8]) was “significantly increases”, the sarcomere shortening (adult rabbit myocytes; [8]) was “significantly increases” and the “shortening of calcium relaxation time constant, as share of the maximal achieved with IBMX” value (adult rabbit myocytes; FSK+Compound 1 versus FSK+IBMX) was 67%. The “Ca2+ transient decay rate” value (adult rabbit myocytes; agent added to Fsk 1 μM) was “enhanced the Ca2+ decay rate similarly to Cil”, the “peak Ca2+ transient” value (adult rabbit myocytes; agent added to Fsk 1 μM) was “no corresponding increase in peak Ca2+ transient” and the sarcomere shortening (adult rabbit myocytes; agent added to Fsk 1 μM) was “sarcomere shortening rose as with Cil”. The “peak-Ca2+” value (adult rabbit myocytes; [9]) was “no longer significantly different from pre-Iso baseline”, the sarcomere shortening (adult rabbit myocytes; [9]) was “did not change further” and the “decay kinetics / relaxation times” value (adult rabbit myocytes; [10]) was “this was not observed”. The “peak-Ca2+ transient” value (adult rabbit myocytes; [10]) was “this was not observed”, the percent sarcomere shortening (adult rabbit myocytes; [10]) was “this was not observed” and the “contraction/calcium decay time or rates” value (adult rabbit myocytes; [11]) was “no effect”. The “peak Ca2+ transient” value (adult rabbit myocytes; [11]) was “no effect”, the sarcomere shortening (adult rabbit myocytes; [11]) was “no effect” and the cardiac output ([4]; 0.1 mg/kg i.v. bolus alone) was “increases cardiac output”. The heart rate ([4]; 0.1 mg/kg i.v. bolus alone) was “modestly elevated heart rate”, the “rise in end-systolic elastance” value ([4]; 0.1 mg/kg i.v. bolus alone) was 50% and the “rise in pre-load recruitable stroke work” value ([4]; 0.1 mg/kg i.v. bolus alone) was 50%. For the same molecule, the systemic resistance ([4]; 0.1 mg/kg i.v. bolus alone) was “lowered systemic resistance”, the systolic pressure ([4]; 0.1 mg/kg i.v. bolus alone) was “no change in systolic pressure” and the “contractile and vasodilation effects” value ([4]; Compound 1 after esmolol) was “remain intact”. For the same molecule, the heart rate ([4]; Compound 1 after esmolol) was “no longer increases HR” and the “responses with heart rate fixed compared with heart rate allowed to change” value ([4]; atrially paced at ~20% above sinus node rate) was “nearly identical responses”.
